Results published in PMC10004634 (PLOS ONE, 2023).
Where two headings read alike, the source gives them in different places.

Key:
Experiment in all cases: biochemical
Design in all cases: KINOMEscan scanMAX competition binding, DNA-tagged kinases, qPCR read-out, percent control at 300 nM
AAK1 = AAK1 (Homo sapiens, UniProt Q2M2I8)
BRSK2 = biological target: T1, BRSK2 (Homo sapiens, UniProt Q8IWQ3)
T1 sequence (Q8IWQ3 1-736): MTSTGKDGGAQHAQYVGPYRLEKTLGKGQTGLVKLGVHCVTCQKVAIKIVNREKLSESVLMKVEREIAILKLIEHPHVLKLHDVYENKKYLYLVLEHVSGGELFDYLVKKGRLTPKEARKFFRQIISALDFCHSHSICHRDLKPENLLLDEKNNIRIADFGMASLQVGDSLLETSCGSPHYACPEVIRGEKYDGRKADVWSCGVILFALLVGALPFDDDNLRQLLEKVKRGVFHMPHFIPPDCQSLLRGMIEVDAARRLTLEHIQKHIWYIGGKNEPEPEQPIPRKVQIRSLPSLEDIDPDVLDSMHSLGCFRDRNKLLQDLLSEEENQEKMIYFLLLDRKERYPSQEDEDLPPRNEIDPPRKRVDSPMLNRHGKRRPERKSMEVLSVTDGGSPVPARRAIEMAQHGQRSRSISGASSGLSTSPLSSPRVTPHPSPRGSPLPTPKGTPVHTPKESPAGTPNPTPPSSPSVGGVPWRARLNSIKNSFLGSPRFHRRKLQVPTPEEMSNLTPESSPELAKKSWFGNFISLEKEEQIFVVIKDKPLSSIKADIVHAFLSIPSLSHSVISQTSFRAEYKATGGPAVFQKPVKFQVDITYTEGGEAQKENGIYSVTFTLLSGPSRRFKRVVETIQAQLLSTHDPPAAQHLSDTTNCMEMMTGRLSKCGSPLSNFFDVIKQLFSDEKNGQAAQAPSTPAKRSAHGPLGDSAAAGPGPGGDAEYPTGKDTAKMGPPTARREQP

CLK3 = CLK3 (Homo sapiens, UniProt P49761)
Sequence of CLK3 (P49761 whole entry): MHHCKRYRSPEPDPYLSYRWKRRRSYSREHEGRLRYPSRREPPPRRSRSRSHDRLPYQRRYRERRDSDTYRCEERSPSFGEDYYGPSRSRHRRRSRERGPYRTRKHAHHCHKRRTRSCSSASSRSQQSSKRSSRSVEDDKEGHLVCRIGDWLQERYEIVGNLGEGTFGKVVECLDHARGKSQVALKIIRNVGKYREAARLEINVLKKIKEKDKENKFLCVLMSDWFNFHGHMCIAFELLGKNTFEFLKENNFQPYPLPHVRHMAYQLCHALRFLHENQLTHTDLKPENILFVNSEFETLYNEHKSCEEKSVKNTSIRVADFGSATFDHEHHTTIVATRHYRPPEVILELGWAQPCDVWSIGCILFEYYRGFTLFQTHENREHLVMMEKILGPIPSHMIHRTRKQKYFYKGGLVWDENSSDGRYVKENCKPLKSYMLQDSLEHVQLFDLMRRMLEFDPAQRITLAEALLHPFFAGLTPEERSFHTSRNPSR

FLT1 = FLT1 (Homo sapiens, UniProt P17948)
FRK = FRK (Homo sapiens, UniProt P42685)
Sequence of FRK (P42685 whole entry): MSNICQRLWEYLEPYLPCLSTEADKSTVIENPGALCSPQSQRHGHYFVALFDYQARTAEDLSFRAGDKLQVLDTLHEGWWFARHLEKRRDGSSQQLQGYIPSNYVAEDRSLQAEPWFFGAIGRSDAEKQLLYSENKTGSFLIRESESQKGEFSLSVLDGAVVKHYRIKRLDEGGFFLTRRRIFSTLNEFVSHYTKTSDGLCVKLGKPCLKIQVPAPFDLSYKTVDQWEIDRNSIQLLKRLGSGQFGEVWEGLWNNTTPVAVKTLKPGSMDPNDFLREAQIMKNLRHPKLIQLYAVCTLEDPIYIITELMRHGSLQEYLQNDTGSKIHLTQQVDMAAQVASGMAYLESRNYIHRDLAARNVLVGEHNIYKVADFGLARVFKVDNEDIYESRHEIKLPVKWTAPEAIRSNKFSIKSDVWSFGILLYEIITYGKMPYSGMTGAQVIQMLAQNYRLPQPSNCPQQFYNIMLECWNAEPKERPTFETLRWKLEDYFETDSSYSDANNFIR

IRAK1 = IRAK1 (Homo sapiens, UniProt P51617)
Sequence of IRAK1 (P51617 whole entry): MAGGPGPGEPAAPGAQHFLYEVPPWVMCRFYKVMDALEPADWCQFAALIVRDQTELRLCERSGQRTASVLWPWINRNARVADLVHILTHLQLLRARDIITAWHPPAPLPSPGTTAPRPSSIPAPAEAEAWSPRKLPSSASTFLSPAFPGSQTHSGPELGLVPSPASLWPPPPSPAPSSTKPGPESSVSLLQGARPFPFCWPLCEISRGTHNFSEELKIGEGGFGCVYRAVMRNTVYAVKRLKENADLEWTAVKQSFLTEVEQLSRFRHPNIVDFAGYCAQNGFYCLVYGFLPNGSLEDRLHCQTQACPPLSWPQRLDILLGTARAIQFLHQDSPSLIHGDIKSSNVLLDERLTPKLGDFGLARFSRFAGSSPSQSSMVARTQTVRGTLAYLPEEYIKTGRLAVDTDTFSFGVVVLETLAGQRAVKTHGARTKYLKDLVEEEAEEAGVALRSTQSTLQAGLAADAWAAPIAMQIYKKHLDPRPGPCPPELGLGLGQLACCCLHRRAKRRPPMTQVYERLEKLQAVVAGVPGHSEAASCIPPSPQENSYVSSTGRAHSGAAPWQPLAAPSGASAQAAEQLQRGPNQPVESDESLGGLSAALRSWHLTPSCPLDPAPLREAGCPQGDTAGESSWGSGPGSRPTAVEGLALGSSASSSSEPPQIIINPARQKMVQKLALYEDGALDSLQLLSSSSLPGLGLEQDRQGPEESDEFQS

PKN1 = PKN1 (Homo sapiens, UniProt Q16512)
Sequence of PKN1 (Q16512 whole entry): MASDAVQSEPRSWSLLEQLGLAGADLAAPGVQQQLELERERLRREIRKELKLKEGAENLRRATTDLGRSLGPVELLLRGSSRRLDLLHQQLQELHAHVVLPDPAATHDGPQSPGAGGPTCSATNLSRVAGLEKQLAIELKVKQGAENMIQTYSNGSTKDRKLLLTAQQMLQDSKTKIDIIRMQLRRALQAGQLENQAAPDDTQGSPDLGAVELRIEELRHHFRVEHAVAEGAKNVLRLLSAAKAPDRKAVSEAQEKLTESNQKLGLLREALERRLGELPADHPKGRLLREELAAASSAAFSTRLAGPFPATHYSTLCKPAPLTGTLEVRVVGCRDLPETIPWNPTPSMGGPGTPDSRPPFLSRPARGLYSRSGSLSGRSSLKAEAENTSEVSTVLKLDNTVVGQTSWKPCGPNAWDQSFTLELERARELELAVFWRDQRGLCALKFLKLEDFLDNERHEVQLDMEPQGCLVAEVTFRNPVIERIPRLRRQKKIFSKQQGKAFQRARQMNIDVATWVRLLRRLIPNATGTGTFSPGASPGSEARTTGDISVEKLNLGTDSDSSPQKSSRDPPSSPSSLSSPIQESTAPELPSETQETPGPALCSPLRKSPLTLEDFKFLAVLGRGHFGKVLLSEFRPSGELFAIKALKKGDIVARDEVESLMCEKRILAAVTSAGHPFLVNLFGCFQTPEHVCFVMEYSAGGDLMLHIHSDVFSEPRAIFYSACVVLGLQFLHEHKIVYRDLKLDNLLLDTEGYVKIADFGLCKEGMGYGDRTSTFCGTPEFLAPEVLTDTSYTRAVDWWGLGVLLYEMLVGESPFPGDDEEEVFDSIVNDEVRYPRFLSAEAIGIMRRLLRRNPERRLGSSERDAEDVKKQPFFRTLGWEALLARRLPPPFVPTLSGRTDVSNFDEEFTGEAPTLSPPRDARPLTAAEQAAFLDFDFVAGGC

RET(V804M) = RET(V804M) (Homo sapiens, UniProt P07949, V804M)
Sequence of RET(V804M) (P07949 whole entry V804M): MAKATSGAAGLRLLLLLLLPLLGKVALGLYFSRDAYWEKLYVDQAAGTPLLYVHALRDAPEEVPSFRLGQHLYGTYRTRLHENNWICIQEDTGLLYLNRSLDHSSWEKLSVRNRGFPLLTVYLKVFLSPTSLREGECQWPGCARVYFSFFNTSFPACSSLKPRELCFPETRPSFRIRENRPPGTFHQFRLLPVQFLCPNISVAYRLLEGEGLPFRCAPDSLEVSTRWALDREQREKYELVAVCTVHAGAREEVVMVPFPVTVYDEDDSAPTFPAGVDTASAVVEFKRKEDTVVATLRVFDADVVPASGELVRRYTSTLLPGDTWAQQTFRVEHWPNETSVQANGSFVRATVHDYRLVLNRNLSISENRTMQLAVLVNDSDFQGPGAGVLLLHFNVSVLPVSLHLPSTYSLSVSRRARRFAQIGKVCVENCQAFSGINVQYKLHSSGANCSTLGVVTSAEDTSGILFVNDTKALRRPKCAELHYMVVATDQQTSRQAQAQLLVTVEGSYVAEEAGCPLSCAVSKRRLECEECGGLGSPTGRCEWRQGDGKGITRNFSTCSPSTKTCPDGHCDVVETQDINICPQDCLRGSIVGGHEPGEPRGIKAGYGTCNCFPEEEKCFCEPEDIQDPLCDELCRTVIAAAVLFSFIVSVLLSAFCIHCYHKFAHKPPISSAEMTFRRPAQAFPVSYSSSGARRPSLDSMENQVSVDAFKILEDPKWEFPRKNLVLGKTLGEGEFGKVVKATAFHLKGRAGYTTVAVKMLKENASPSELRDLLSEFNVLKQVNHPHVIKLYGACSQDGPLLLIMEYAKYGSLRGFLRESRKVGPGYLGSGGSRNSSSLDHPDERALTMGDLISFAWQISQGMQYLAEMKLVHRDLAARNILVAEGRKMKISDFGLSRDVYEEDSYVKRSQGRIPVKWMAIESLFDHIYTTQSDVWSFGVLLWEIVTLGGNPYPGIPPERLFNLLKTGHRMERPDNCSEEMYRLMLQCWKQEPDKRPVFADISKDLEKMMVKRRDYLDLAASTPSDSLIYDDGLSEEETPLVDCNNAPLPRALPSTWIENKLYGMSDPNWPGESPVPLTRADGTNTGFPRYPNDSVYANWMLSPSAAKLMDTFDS

ULK1 = biological target: T2, ULK1 (Homo sapiens, UniProt O75385)
T2 sequence (O75385 1-1050): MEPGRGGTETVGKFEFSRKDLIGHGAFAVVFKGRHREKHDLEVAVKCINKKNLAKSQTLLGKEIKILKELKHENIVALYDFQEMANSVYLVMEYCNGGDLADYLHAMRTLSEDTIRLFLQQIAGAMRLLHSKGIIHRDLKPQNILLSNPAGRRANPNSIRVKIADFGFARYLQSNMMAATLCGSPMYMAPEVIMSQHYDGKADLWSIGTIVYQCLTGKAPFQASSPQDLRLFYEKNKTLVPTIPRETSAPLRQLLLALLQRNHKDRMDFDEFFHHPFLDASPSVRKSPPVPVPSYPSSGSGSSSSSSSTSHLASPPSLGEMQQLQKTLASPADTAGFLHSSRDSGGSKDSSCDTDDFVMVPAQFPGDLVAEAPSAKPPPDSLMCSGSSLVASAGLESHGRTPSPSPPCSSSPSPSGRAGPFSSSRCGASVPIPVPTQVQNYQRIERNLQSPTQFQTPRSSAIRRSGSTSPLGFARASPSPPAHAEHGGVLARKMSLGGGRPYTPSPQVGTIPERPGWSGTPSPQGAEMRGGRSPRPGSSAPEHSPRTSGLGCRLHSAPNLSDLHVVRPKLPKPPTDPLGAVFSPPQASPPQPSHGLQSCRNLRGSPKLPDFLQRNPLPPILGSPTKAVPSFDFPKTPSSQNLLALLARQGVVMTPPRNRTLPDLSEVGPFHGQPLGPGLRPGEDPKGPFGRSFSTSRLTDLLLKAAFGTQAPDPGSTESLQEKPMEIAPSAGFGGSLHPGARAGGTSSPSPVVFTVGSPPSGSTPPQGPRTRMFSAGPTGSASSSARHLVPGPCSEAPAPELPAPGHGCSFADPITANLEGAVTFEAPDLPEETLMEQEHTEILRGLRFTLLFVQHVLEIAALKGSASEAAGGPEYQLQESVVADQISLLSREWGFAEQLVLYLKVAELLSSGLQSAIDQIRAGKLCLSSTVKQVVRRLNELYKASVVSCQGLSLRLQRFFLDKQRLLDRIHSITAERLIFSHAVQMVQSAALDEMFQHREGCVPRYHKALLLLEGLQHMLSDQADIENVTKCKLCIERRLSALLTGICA

PRP4 = biological target: T3, PRP4 (Homo sapiens, UniProt Q13523)
T3 construct: gene PRPF4B

[1] = read-out: Percent control / Acalabrutinib
[2] = read-out: Percent control / Ibrutinib
[3] = read-out: Percent control / Tirabrutinib
[4] = read-out: Percent control / Zanubrutinib

Sequence of AAK1 (Q2M2I8 whole entry): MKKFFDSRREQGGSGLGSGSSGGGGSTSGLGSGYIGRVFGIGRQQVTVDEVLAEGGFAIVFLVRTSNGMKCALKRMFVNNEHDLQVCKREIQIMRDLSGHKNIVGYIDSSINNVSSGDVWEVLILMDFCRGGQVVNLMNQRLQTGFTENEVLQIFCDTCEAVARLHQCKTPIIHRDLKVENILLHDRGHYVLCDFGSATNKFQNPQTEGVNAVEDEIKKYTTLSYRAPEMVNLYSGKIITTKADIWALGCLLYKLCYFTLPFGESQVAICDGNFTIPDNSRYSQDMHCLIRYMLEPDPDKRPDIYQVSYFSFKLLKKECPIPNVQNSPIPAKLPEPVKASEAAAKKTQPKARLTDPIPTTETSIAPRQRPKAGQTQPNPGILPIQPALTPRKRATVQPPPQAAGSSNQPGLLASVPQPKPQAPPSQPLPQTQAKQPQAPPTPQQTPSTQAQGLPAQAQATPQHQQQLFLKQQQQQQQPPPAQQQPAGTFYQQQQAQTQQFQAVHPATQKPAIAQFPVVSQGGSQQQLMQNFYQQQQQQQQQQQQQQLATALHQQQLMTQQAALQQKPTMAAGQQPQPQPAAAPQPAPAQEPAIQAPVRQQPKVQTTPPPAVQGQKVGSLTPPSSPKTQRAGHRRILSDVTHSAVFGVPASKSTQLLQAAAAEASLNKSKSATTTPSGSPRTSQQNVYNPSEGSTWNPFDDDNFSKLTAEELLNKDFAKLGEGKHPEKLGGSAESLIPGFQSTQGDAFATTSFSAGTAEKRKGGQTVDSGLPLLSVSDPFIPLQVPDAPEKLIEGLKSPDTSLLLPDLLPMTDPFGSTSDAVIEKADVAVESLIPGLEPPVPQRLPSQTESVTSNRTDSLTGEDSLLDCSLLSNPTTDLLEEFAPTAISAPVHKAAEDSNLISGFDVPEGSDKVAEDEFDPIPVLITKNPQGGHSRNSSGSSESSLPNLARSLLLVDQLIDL

## CC#CC(=O)N1CCC[C@H]1c1nc(-c2ccc(C(=O)Nc3ccccn3)cc2)c2c(N)nccn12 [Acalabrutinib]
AAK1; [1]
  remaining binding at 0.3 µM: 94%
BRSK2; [1]
  remaining binding at 0.3 µM: 94%
CLK3; [1]
  remaining binding at 0.3 µM: 94%
FLT1; [1]
  remaining binding at 0.3 µM: 89%
FRK; [1]
  remaining binding at 0.3 µM: 79%
IRAK1; [1]
  remaining binding at 0.3 µM: 90%
PKN1; [1]
  remaining binding at 0.3 µM: 81%
RET(V804M); [1]
  remaining binding at 0.3 µM: 85%
ULK1; [1]
  remaining binding at 0.3 µM: 95%

## C=CC(=O)N1CCC[C@@H](n2nc(-c3ccc(Oc4ccccc4)cc3)c3c(N)ncnc32)C1 [Ibrutinib]
BRSK2; [2]
  remaining binding at 0.3 µM: 82%
FLT1; [2]
  remaining binding at 0.3 µM: 82%
FRK; [2]
  remaining binding at 0.3 µM: 32%
IRAK1; [2]
  remaining binding at 0.3 µM: 89%
PRP4; [2]
  remaining binding at 0.3 µM: 96%
RET(V804M); [2]
  remaining binding at 0.3 µM: 94%
ULK1; [2]
  remaining binding at 0.3 µM: 85%

## CC#CC(=O)N1CC[C@@H](n2c(=O)n(-c3ccc(Oc4ccccc4)cc3)c3c(N)ncnc32)C1 [Tirabrutinib]
AAK1; [3]
  remaining binding at 0.3 µM: 57%
CLK3; [3]
  remaining binding at 0.3 µM: 82%
FLT1; [3]
  remaining binding at 0.3 µM: 74%
PKN1; [3]
  remaining binding at 0.3 µM: 99%
PRP4; [3]
  remaining binding at 0.3 µM: 99%
ULK1; [3]
  remaining binding at 0.3 µM: 74%

## C=CC(=O)N1CCC([C@@H]2CCNc3c(C(N)=O)c(-c4ccc(Oc5ccccc5)cc4)nn32)CC1 [Zanubrutinib]
AAK1; [4]
  remaining binding at 0.3 µM: 96%
BRSK2; [4]
  remaining binding at 0.3 µM: 81%
CLK3; [4]
  remaining binding at 0.3 µM: 82%
FRK; [4]
  remaining binding at 0.3 µM: 42%
IRAK1; [4]
  remaining binding at 0.3 µM: 100%
PKN1; [4]
  remaining binding at 0.3 µM: 100%
PRP4; [4]
  remaining binding at 0.3 µM: 100%
RET(V804M); [4]
  remaining binding at 0.3 µM: 94%
ULK1; [4]
  remaining binding at 0.3 µM: 100%
